Assay results as given in paper PMC7055300, “Theileria parasites subvert E2F signaling to stimulate leukocyte proliferation” (Scientific Reports, 2020).
“Also recorded” adds a separate entry of the source.

Experiments:
[1] = test system: uninfected BL20 cells; test: Cell proliferation, uninfected B cells (BL20), hemacytometer count; format: cell-based, bovine; details: uninfected BL20, HLM006474 10 μM in DMSO, average of 3 independent experiments
Description: (a) TpMD409B.2 cells were transfected with E2F-luc (WT = wild-type E2F binding construct), or mutated E2F-luc constructs (labeled ‘mutated’) together with a CMV-lacZ plasmid to normalize for transfection efficiency. Luciferase and β-galactosidase activities were measured 24 hrs after transfection. E2F-luc relative luciferase activity normalized to mE2F-luc. Shown is the average of 3 independent experiments with standard deviation. BL20 or TBL20 cells were treated with (b) 1μM of penetrating peptides ([…]-K(FITC)) containing the TpGcpE LXCXE motif, or an LXNXE control ([…]-K(FITC)) or (c) E2F inhibitor or DMSO control, and then counted by hemacytometer after the indicated timepoints. Shown is the average of 3 independent experiments with standard deviation. Then, either (d) virulent Ode T. annulata-transformed macrophages, or (e) BL20/TBL20 T. annulata-transformed cells were transfected with E2F-luc plasmid (or mutated E2F-luc as in (c)) and incubated for 24 hrs at 37 °C. Then, cells were treated with penetrating peptides as in (b) for 2 hrs and luciferase activity was quantified. Data shown are representative of three independent experiments done with biological duplicates, with mean + standard deviation (*P-value < 0.05 compared to untreated; ^‡P-value < 0.05 compared to its respective BL20 control). […]

[2] = test system: T. annulata-infected TBL20 cells; test: Cell proliferation, T. annulata-infected B cells (TBL20), hemacytometer count; format: cell-based, bovine; details: T. annulata-infected TBL20, HLM006474 10 μM in DMSO, average of 3 independent experiments
Description: (a) TpMD409B.2 cells were transfected with E2F-luc (WT = wild-type E2F binding construct), or mutated E2F-luc constructs (labeled ‘mutated’) together with a CMV-lacZ plasmid to normalize for transfection efficiency. Luciferase and β-galactosidase activities were measured 24 hrs after transfection. E2F-luc relative luciferase activity normalized to mE2F-luc. Shown is the average of 3 independent experiments with standard deviation. BL20 or TBL20 cells were treated with (b) 1μM of penetrating peptides ([…]-K(FITC)) containing the TpGcpE LXCXE motif, or an LXNXE control ([…]-K(FITC)) or (c) E2F inhibitor or DMSO control, and then counted by hemacytometer after the indicated timepoints. Shown is the average of 3 independent experiments with standard deviation. Then, either (d) virulent Ode T. annulata-transformed macrophages, or (e) BL20/TBL20 T. annulata-transformed cells were transfected with E2F-luc plasmid (or mutated E2F-luc as in (c)) and incubated for 24 hrs at 37 °C. Then, cells were treated with penetrating peptides as in (b) for 2 hrs and luciferase activity was quantified. Data shown are representative of three independent experiments done with biological duplicates, with mean + standard deviation (*P-value < 0.05 compared to untreated; ^‡P-value < 0.05 compared to its respective BL20 control).
The TpMD409.B2 cell line is a T. parva Muguga-infected B-cell clone (B2) whose establishment, phenotypic characteristics and culture conditions have been described[25]–[27]. BL20 cells are a retrovirus-transformed B cell line isolated from an infected cow. To eliminate the parasite, cells were treated for the indicated time with buparvaquone (50 ng/ml, 1 mg/ml stock in ethanol; Sigma). To inhibit E2F activity, cells were treated for the indicated time with HLM006474 (10 μM in DMSO, Sigma), or DMSO (10μM; Sigma) as a control. The T. annulata-infected cell lines BL20 (B cell), as well as Ode (macrophage) cell lines are well described and characterized.
The amino acid sequence of RB-1 based on the parasite sequence ([…]) was synthesized. Cysteine in wild type RB1 was replaced by an Asparagine (N; in bold […]). The penetrating peptide to facilitate cell entry is underlined.

[3] = test system: BL20/TBL20 cells; format: cell-based, bovine; details: HLM006474 10 μM; data not shown
Description: Since the LXCXE peptide can induce E2F activity, we investigated whether it could, on its own, increase bovine leukocyte proliferation. To extend our observations to T. annulata-infected leukocytes, we incubated T. annulata-infected B cells with WT or mutated LXNXE peptides and counted cell numbers at 24 h and 48 h.
The amino acid sequence of RB-1 based on the parasite sequence ([…]) was synthesized. Cysteine in wild type RB1 was replaced by an Asparagine (N; in bold […]). The penetrating peptide to facilitate cell entry is underlined. 3 different concentrations of peptides were used for 2 h to determine the minimum effective concentration (1 μM) with minimum toxic effect, which was used to perform each experiment as indicated.

[4] = test system: T. parva-transformed TpMD409.B2 cells; test: Flow cytometric BrdU incorporation; format: cell-based, bovine; details: untreated vs buparvaquone-treated, 24 h and 48 h
Description: The discovery of these peptides led us to investigate the particular RB/E2F signaling components in Theileria-infected cells. Eight E2F transcription factor genes have been identified in mammals, which can be divided into two groups: activators (E2F-1, E2F-2, E2F-3a), which can bind RB, and repressors (e.g. E2F-3b, E2F-4, E2F-5), which can bind RB, p107 and p130. The balance between the activator and repressor E2Fs seems to be primarily controlled by the phosphorylation status of the associated pocket proteins to which they bind. E2F interactions with the Dimerization Partner (DP) ligands are also important for regulating E2F transcription factor activity. We used Western blot to compare the levels of RB family, E2F, and DP-1 protein between T. parva-transformed cells that were left untreated with those treated with buparvaquone to kill the parasite and induce an arrest in host cell proliferation. By comparing expression levels between the buparvaquone-treated and untreated groups, we can determine parasite-dependent changes in the expression levels of these proteins. […]
Figure 2 RB/E2F signaling is activated by Theileria parasites. (a) Western blot analysis (left) of E2F-1, E2F-3 E2F-4, DP-1, pRB, and p130 expression in TpMD409B.2 cells, either left untreated (−), or treated (+) for 24 h and 48 h with buparvaquone (BQ), including band intensity quantification (right). […]

[5] = test system: T. parva-transformed TpMD409.B2 cells; test: Western blot of RB/E2F pathway proteins after parasite killing; format: cell-based, bovine; details: buparvaquone 50 ng/ml
Description: The discovery of these peptides led us to investigate the particular RB/E2F signaling components in Theileria-infected cells. Eight E2F transcription factor genes have been identified in mammals, which can be divided into two groups: activators (E2F-1, E2F-2, E2F-3a), which can bind RB, and repressors (e.g. E2F-3b, E2F-4, E2F-5), which can bind RB, p107 and p130. The balance between the activator and repressor E2Fs seems to be primarily controlled by the phosphorylation status of the associated pocket proteins to which they bind. E2F interactions with the Dimerization Partner (DP) ligands are also important for regulating E2F transcription factor activity. We used Western blot to compare the levels of RB family, E2F, and DP-1 protein between T. parva-transformed cells that were left untreated with those treated with buparvaquone to kill the parasite and induce an arrest in host cell proliferation. By comparing expression levels between the buparvaquone-treated and untreated groups, we can determine parasite-dependent changes in the expression levels of these proteins. […] These faster migrating bands likely correspond to hypophosphorylated, proliferation-suppressive forms of RB and p130, at 24 h and 48 h after treatment with buparvaquone.
Figure 2 RB/E2F signaling is activated by Theileria parasites. (a) Western blot analysis (left) of E2F-1, E2F-3 E2F-4, DP-1, pRB, and p130 expression in TpMD409B.2 cells, either left untreated (−), or treated (+) for 24 h and 48 h with buparvaquone (BQ), including band intensity quantification (right). Shown are representatives of three independent experiments. (b) E2F DNA binding activity in TpMD409B.2 cells was assayed by EMSA using gP32- labeled double-stranded oligonucleotide spanning E2F binding sites from the dhfr gene promoter. Left panel, nuclear extracts from TpMD409B.2 cells were incubated with γP32-labeled probe in absence or presence of a 100 fold molar excess of unlabeled wild type (WT), or mutated (MUT) double-stranded oligonucleotide. Binding reactions were resolved by non-denaturing polyacrylamide gel, which was processed afterwards for autoradiography. Right panel, EMSA analysis of E2F DNA binding activity in nuclear extracts from untreated, proliferating TpMD409B.2 cells (−) and TpMD409B.2 cells treated for 24 and 48 h with the parasiticidal drug buparvaquone (+). Arrows indicate E2F in complex with RB family proteins (Complexes) or free E2F protein (Free). (c) Flow cytometric analysis of BrdU incorporation and DNA content in TpMD409B.2 cells, either left untreated (control), or treated with buparvaquone for 24 h and 48 h. Shown is a representative of three independent experiments. […]

[6] = test system: E2F binding sites from the dhfr gene promoter; TpMD409.B2 nuclear extracts; test: E2F DNA binding activity by EMSA; format: cell-based, bovine; details: buparvaquone 50 ng/ml, 24 h and 48 h
Description: (a) Western blot analysis (left) of E2F-1, E2F-3 E2F-4, DP-1, pRB, and p130 expression in TpMD409B.2 cells, either left untreated (−), or treated (+) for 24 h and 48 h with buparvaquone (BQ), including band intensity quantification (right). Shown are representatives of three independent experiments. (b) E2F DNA binding activity in TpMD409B.2 cells was assayed by EMSA using gP32- labeled double-stranded oligonucleotide spanning E2F binding sites from the dhfr gene promoter. Left panel, nuclear extracts from TpMD409B.2 cells were incubated with γP32-labeled probe in absence or presence of a 100 fold molar excess of unlabeled wild type (WT), or mutated (MUT) double-stranded oligonucleotide. Binding reactions were resolved by non-denaturing polyacrylamide gel, which was processed afterwards for autoradiography. […]

[7] = target: T1, Retinoblastoma-1 (RB) pocket domain (Homo sapiens, UniProt P06400); test: Surface plasmon resonance binding to RB pocket domain; details: SPR, RB pocket domain on sensor chip; sequence-scrambled peptides as negative controls
T1 construct: Recombinant, purified RB pocket domain was coupled to the surface of the sensor chip; purchased LDBiopharma HTF-1035
T1 sequence (P06400 373-771 limits assumed): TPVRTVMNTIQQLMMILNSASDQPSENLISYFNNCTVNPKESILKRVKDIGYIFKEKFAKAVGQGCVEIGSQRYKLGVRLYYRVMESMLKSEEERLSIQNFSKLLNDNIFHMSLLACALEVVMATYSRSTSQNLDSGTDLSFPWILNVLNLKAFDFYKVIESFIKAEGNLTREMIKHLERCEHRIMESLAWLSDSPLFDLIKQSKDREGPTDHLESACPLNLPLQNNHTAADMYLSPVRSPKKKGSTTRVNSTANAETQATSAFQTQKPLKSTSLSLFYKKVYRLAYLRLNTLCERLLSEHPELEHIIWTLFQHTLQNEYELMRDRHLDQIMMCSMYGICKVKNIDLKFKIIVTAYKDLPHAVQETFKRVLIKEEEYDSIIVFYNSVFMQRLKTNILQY
Description: Since the proliferation of T. parva-infected host cells is thought to be critical for the pathogenesis of infection, we investigated whether synthesized peptides, each 9 to 19 amino acids long and containing these 15 T. parva motifs, could bind to RB (Supplementary Table 1). Surface plasmon resonance (SPR) was used to screen these peptides for specific RB1 pocket domain-binding activity. Recombinant, purified RB pocket domain was coupled to the surface of the sensor chip, and purified peptides were introduced at various concentrations to quantify kinetics if response curves indicated a detectable protein-protein interaction. Sequence-scrambled peptides were used as negative controls to exclude false-positive signals.
Immobilization of human RB1 protein to CM5 chip
Surface preparation. […]
Kinetics analysis of binding. […] The analytes (60 µl each, 0–25 µM in HBS-EP buffer with 0.05% P20) were injected into flow cell and the association of analyte and ligand were recorded respectively by surface plasmon resonance (SPR) with a Biacore T200 (Biacore, Inc., New Jersey). […]
Data analysis. Sensorgrams of the interaction generated by the instrument were analyzed using the software BIAeval 3.2 (Biacore Inc., New Jersey). […]

Molecule: CCOc1ccc(C(Nc2ccccn2)c2ccc3ccc(C)nc3c2O)cc1C (stereo not shown) [HLM006474, reference compound]
- proliferation with E2F inhibitor [1]: not uninfected BL20 cells
- proliferation with E2F inhibitor ([1]; listed as HLM0006474): not uninfected bovine B cell lines
- proliferation with E2F inhibitor [2]: specifically reduced the proliferation of T. annulata-infected TBL20 cells
- proliferation with E2F inhibitor ([2]; listed as HLM0006474): specifically inhibit the proliferation of T. annulata-infected
- dependence of the effect on cell death [3]: not dependent on cell death

Molecule: CC(C)(C)[C@H]1CC[C@H](CC2=C(O)C(=O)c3ccccc3C2=O)CC1 [buparvaquone]
- proliferation, dependence on the parasite [4]: Proliferation was also confirmed to be dependent on the parasite
- pRB and p130 migration ([5]; 24 h and 48 h, vs untreated): migrate faster in parasite-killed TpMD409.B2 cells than in untreated cells
- E2F-4 protein levels ([5]; 48 h): E2F-4 levels remain unaltered
- slower-migrating DP-1 band ([5]; 48 h): a slower-migrating DP-1 band increases
- E2F-1 and E2F-3 protein levels ([5]; after 48 h but not 24 h): E2F-1 and E2F-3 protein levels decrease
- E2F DNA binding activity [6]: overall decrease in E2F DNA binding activity
- slow and intermediate complexes bound to E2F-dependent promoter [6]: increase in complexes migrating at slow and intermediate speed bound to an E2F-dependent promoter

Molecule: RDELQGVIQLLYDRYNKYI [TpMuguga_02g02355, SPR screening peptide […] with an LXXLFD motif from TpMuguga_02g02355]
- RB binding in words [7]: bound the RB pocket domain with nanomolar affinity; also recorded: bind RB in a sequence-specific fashion
